Measured values published in article PMC4812366, “3,1-Benzothiazines, 1,4-Benzodioxines and 1,4-Benzoxazines as Inhibitors of Matriptase-2: Outcome of a Focused Screening Approach” (Pharmaceuticals, 2016).
Read-outs that look alike come from different tables or passages of the source.

Experiments:
human matriptase-2 [1] = molecular target: T1, human matriptase-2 (Homo sapiens, UniProt Q8IU80); assay: Human matriptase-2 inhibition, fluorogenic substrate Boc-Gln-Ala-Arg-AMC, conditioned medium of HEK-MT2 cells; assay type: biochemical; settings: for IC50: substrate 40 µM, pH 8.0, 37 °C; for matriptase-2 inhibitory activity in words: screening at single inhibitor concentration of 40 µM
T1 construct: The conditioned medium of HEK-MT2 cells was used as a source of matriptase-2 activity; expressed in transfected cells; host or cells: HEK-MT2 cells (conditioned medium, collected and concentrated)
T1 sequence (Q8IU80 577-811 limits assumed): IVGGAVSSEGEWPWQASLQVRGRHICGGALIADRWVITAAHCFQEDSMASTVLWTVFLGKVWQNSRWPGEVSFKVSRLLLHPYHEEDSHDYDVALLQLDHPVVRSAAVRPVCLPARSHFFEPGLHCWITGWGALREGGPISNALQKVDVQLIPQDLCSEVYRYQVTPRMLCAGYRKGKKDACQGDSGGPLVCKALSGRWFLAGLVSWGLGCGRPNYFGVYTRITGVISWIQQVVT
T1 sequence (Q8IU80 438-576 partner limits assumed): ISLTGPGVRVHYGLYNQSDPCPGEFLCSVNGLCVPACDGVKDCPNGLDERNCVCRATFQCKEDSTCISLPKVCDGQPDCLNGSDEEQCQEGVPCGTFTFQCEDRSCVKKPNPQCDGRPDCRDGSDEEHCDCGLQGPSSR
Procedure: The conditioned medium of HEK-MT2 cells was used as a source of matriptase-2 activity and assay conditions were as follows. Assay buffer was 50 mM Tris–HCl, 150 mM NaCl, pH 8.0. The conditioned medium was collected and concentrated, and aliquots of the supernatant were stored at −20 °C. After thawing, it was diluted with assay buffer (1:10 or 1:20 depending on the enzyme activity) and kept at 0 °C not longer than 8 h. The assays were performed at a FLUOstar OPTIMA PlateReader (BMG Labtech, Ortenberg, Germany). A 10 mM stock solution of the fluorogenic substrate Boc-Gln-Ala-Arg-AMC (Bachem, Bubendorf, Switzerland) in DMSO was diluted with assay buffer. The final concentration of the substrate was 40 µM and of DMSO was 6%. The substrate concentration of 40 µM refers to 1.24 × Km. Into each well containing 163.8 µL buffer, 11.2 µL of an inhibitor solution in DMSO and 10 µL of a substrate solution (800 µM) were added and thoroughly mixed. At 37 °C the reaction was initiated by adding 15 µL of diluted conditioned medium and followed over 400 s. All measurements were performed in duplicate with a single inhibitor concentration of 40 µM. Active inhibitors were investigated in duplicate with five different concentrations. Benzamidine hydrochloride was purchased from Acros Organics (Geel, Belgium).
Progress curves were analyzed by linear regression. IC50 values were determined by nonlinear regression using the equation vs = v0/(1 + [I]/IC50), where vs is the steady-state rate, v0 is the rate in the absence of the inhibitor, and [I] is the inhibitor concentration. Standard errors of the mean (SEM) values refer to this nonlinear regression.

thrombin = settings: cited from earlier work; for thrombin inhibition relative to trypsin and factor Xa, in words: ref [39],[41]
human matriptase-2 [2] = molecular target: T1, human matriptase-2; assay: Human matriptase-2 inhibition, fluorogenic substrate Boc-Gln-Ala-Arg-AMC, conditioned medium of HEK-MT2 cells; assay type: biochemical; settings: substrate concentrations of 20, 30, 40, 50 and 60 µM
[3] = Table 2, 2,3-dihydro-1,4-benzodioxines and 3,4-dihydro-2H-1,4-benzoxazines, values with SEM: duplicate, five inhibitor concentrations, limits: duplicate, single inhibitor concentration of 40 µM, read-out: IC50 (µM) ± SEM
[4] = read-out: IC50 value for matriptase-2 inhibition
[5] = Table 1, 4H-3,1-benzothiazin-4-ones, values with SEM: duplicate, five inhibitor concentrations, limits: duplicate, single inhibitor concentration of 40 µM, read-out: IC50 (µM) ± SEM

SMILES: N=C(N)c1ccc(OC[C@@H]2COc3ccc(N(Cc4ccccc4)C(=O)C(=O)O)cc3O2)cc1 [(R)-10]
- IC50 (human matriptase-2 [1]; [3]): 27.3 ± 2 µM

SMILES: N=C(N)c1ccc(OC[C@@H]2COc3cc(N(Cc4ccccc4)C(=O)C(=O)O)ccc3O2)cc1 [(R)-11]
- IC50 (human matriptase-2 [1]; [3]): 33.6 ± 1.1 µM

SMILES: CCOC(=O)C1CCN(c2ccc(N3C[C@@H](CNCc4ccc(C(=N)N)cc4)OC3=O)cc2)CC1 [(R)-24]
- IC50 (human matriptase-2 [1]; [3]): > 40 µM
- matriptase-2 inhibitory activity in words (human matriptase-2 [1]): inactive

SMILES: N=C(N)c1ccc(OC[C@H]2COc3ccc(N(Cc4ccccc4)C(=O)C(=O)O)cc3O2)cc1 [(S)-10]
- IC50 (human matriptase-2 [1]; [3]): 16.7 ± 1.7 µM

SMILES: N=C(N)c1ccc(OC[C@H]2COc3cc(N(Cc4ccccc4)C(=O)C(=O)O)ccc3O2)cc1 [(S)-11]
- IC50 (human matriptase-2 [1]; [3]): 29.8 ± 1.6 µM

SMILES: CCOC(=O)C(=O)N(Cc1ccccc1)c1ccc2c(c1)O[C@@H](COc1ccc(C(=N)N)cc1)CO2 [(S)-12, (S)-Ethyl 2-(benzyl(3-((4-carbamidoylphenoxy)methyl)-2,3-dihydrobenzo[b][1,4]dioxin-6-yl)amino)-2-oxoacetate]
- thrombin inhibition in words (thrombin; ref [38]): highly potent
- IC50 (human matriptase-2 [1]; [3]): 8.47 ± 0.76 µM
- IC50 (human matriptase-2 [1]; [4]): < 10 µM

SMILES: N=C(N)c1ccccc1 [Benzamidine, reference compound]
- matriptase-2 inhibitory activity in words (human matriptase-2 [1]): lack of inhibitory activity
- IC50 (human matriptase-2 [1]; [4]): > 400 µM

SMILES: CN(C)CCNC(=O)c1ccc2nc(NC(=O)c3ccccc3)sc(=O)c2c1 [Compound 1]
- IC50 (human matriptase-2 [1]; [5]): 148 ± 28 µM

SMILES: CN(C)CCNC(=O)c1ccc2c(=O)sc(NC(=O)c3ccccc3)nc2c1 [Compound 2]
- IC50 (human matriptase-2 [1]; [5]): > 160 µM
- matriptase-2 inhibitory activity in words (human matriptase-2 [1]): loss of activity

SMILES: CN1CCN(C(=O)c2ccc3nc(NC(=O)c4ccccc4)sc(=O)c3c2)CC1 [Compound 3]
- IC50 (human matriptase-2 [1]; [5]): > 160 µM

SMILES: CN1CCN(C(=O)c2ccc3c(=O)sc(NC(=O)c4ccccc4)nc3c2)CC1 [Compound 4]
- IC50 (human matriptase-2 [1]; [5]): > 160 µM

SMILES: O=C(Nc1nc2ccc(C(=O)N3CCN(Cc4ccccc4)CC3)cc2c(=O)s1)c1ccccc1 [Compound 5]
- IC50 (human matriptase-2 [1]; [5]): > 160 µM
- matriptase-2 inhibitory activity in words (human matriptase-2 [1]): inactive

SMILES: O=C(Nc1nc2cc(C(=O)N3CCN(Cc4ccccc4)CC3)ccc2c(=O)s1)c1ccccc1 [Compound 6]
- IC50 (human matriptase-2 [1]; [5]): > 160 µM

SMILES: NCc1ccc(C(=O)Nc2nc3ccccc3c(=O)s2)cc1 [Compound 7]
- IC50 (human matriptase-2 [1]; [5]): 119 ± 9 µM
- matriptase-2 inhibitory activity in words (human matriptase-2 [1]): active

SMILES: CN1CCN(C(=O)c2ccc(C(=O)Nc3nc4ccccc4c(=O)s3)cc2)CC1 [Compound 8]
- IC50 (human matriptase-2 [1]; [5]): > 160 µM
- matriptase-2 inhibitory activity in words (human matriptase-2 [1]): inactive

SMILES: O=C(Nc1nc2ccccc2c(=O)s1)c1ccc(C(=O)N2CCN(Cc3ccccc3)CC2)cc1 [Compound 9]
- IC50 (human matriptase-2 [1]; [5]): > 160 µM
- matriptase-2 inhibitory activity in words (human matriptase-2 [1]): inactive

SMILES: CN1CC(C)(COc2ccc(C(=N)N)cc2)Oc2cc(N(Cc3ccc(F)cc3)C(=O)C(=O)O)ccc21 (stereo not shown) [Compound 13]
- thrombin inhibition relative to trypsin and factor Xa, in words (thrombin): inhibited thrombin better than trypsin and factor Xa
- thrombin inhibition in words (thrombin; ref [39]): highly active
- IC50 (human matriptase-2 [1]; [3]): > 40 µM
- matriptase-2 inhibitory activity in words (human matriptase-2 [1]): inactive

SMILES: CN1CC(C)(COc2ccc(C(=N)N)cc2)Oc2ccc(N(Cc3cc(F)cc(F)c3)C(=O)C(=O)O)cc21 (stereo not shown) [Compound 14]
- IC50 (human matriptase-2 [1]; [3]): 35.8 ± 1.1 µM

SMILES: CN1CC(C)(COc2ccc(C(=N)N)cc2)Oc2cc(N(CC(=O)O)Cc3cc(F)cc(F)c3)ccc21 (stereo not shown) [Compound 15]
- thrombin inhibition relative to trypsin and factor Xa, in words (thrombin): inhibited thrombin better than trypsin and factor Xa
- IC50 (human matriptase-2 [1]; [3]): 25.8 ± 4 µM

SMILES: CN1CC(C)(COc2ccc(C(=N)N)cc2)Oc2cc(N(CC(=O)O)Cc3ccc(F)cc3)ccc21 (stereo not shown) [Compound 16]
- thrombin inhibition relative to trypsin and factor Xa, in words (thrombin): inhibited thrombin better than trypsin and factor Xa
- IC50 (human matriptase-2 [1]; [3]): 13.6 ± 2.31 µM

SMILES: CN1CC(C)(COc2ccc(C(=N)N)cc2)Oc2ccc(N(CC(=O)O)Cc3ccc(F)cc3)cc21 (stereo not shown) [Compound 17]
- IC50 (human matriptase-2 [1]; [3]): 11.2 ± 1.61 µM

SMILES: CCOC(=O)CN(Cc1ccc(F)cc1)c1ccc2c(c1)OC(C)(COc1ccc(C(=N)N)cc1)CN2C (stereo not shown) [Compound 18]
- IC50 (human matriptase-2 [1]; [3]): 31.6 ± 2.69 µM

SMILES: CN1CC(C)(COc2ccc(C(=N)N)cc2)Oc2cc(NC(=O)CCC(=O)O)ccc21 (stereo not shown) [Compound 19]
- type of inhibition (Lineweaver-Burk plot) (human matriptase-2 [2]): mixed type of inhibition
- IC50 (human matriptase-2 [1]; [3]): 38.8 ± 3.14 µM
- matriptase-2 inhibitory activity in words (human matriptase-2 [1]): moderately active

SMILES: COC(=O)C(Cc1ccccc1)C(=O)Nc1ccc2c(c1)OC(C)(COc1ccc(C(=N)N)cc1)CN2C (stereo not shown) [Compound 20]
- IC50 (human matriptase-2 [1]; [3]): 31.4 ± 3.6 µM
- matriptase-2 inhibitory activity in words (human matriptase-2 [1]): moderately active

SMILES: CN1C(=O)C(OCc2ccc(C(=N)N)cc2)Oc2cc(C(=O)Nc3ccccc3)ccc21 (stereo not shown) [Compound 21]
- IC50 (human matriptase-2 [1]; [3]): 42.6 ± 4.7 µM

SMILES: N=C(N)c1ccc(CN2C(=O)COc3cc(NC(=O)[C@H](N)Cc4ccccc4)ccc32)cc1 [Compound 22]
- IC50 (human matriptase-2 [1]; [3]): 30.9 ± 3.4 µM

SMILES: CCOC(=O)[C@H](CNC(=O)CN1C(=O)COc2cc(NC(=O)c3ccc(C(=N)N)cc3)ccc21)NS(=O)(=O)c1ccc(C)cc1 [Compound 23]
- IC50 (human matriptase-2 [1]; [3]): 20.5 ± 2 µM

SMILES: COc1ccc2cc(S(=O)(=O)NN(Cc3cccc(C(=N)N)c3)C(=O)N(C)C3CCCC3)ccc2c1 [Compound 25]
- IC50 (human matriptase-2 [1]; [3]): > 40 µM
- matriptase-2 inhibitory activity in words (human matriptase-2 [1]): inactive
